Measurements taken from US7695725B2, “Modified free-living microbes, vaccine compositions and methods of use thereof” (Aduro Biotech, priority 2003, dated 2010).

Test system: Listeria monocytogenes
Experiment: Bacterial titer / log attenuation of Listeria after compound 1 treatment
Type: cell-based
Conditions: e.g. at 1 μM
Description: A procedure was done similarly to Example 1 only using the compound β-alanine, N-(acridin-9-yl), 2-[bis(2-chloroethyl)amino]ethyl ester (Compound 1, ChemSyn, Harrisonville, Mo., see U.S. Pat. No. 6,093,725). The Listeria strains used were DP-L4056 and DP-L4017. Compound 1 (1 mM in acidic BBS (blood bank saline), 135 μl of 1.48 M H3PO4 per 100 mL BBS) was added to 5 mL of bacteria at 1×10^8 CFU/mL to concentrations of 0, 0.5, 1, 2, 5, and 10 μM and the samples incubated for 2 hours at room temperature. After the incubation, the bacterial titer and antigen presentation was assessed as per Example 1.

Question: With O=C(CCNc1c2ccccc2nc2ccccc12)OCCN(CCCl)CCCl [compound 1, β-alanine, N-(acridin-9-yl), 2-[bis(2-chloroethyl)amino]ethyl ester] as the molecule, how does the “attenuation of proliferation with sufficient antigen presentation” value read?
Answer: Its value is “effective”.
